The source of these data is PMC13162264, “Chemoproteomic Elucidation of β‑Lactam Drug Targets in Mycobacterium abscessus” (ACS Infectious Diseases, 2026).

For series [1], the system named is β-lactam targets in Mab 19977 whole-cell lysates. In words: β-lactam competition of Mero-sCy5 labeling in whole-cell lysates. It is filed as binding, Mycobacterium abscessus subsp. abscessus. The note with it: Mab 19977 lysate; drug 1 mM, then Mero-sCy5 5 μM.
Series [2] has as its system M. abscessus subsp. abscessus (n = 1344 isolates). Details: method as in Hunkins et al. The note with it: ref Hunkins et al.; cited from earlier work.
A further series has as its target DacB2 (Mycobacteroides abscessus, UniProt B1MDJ1). Put plainly: β-lactam IC50 by drug treatment then Bocillin FL labeling, in-gel fluorescence. It is filed as binding, Mycobacterium abscessus.
The conditions of series [3]: human, in vivo; cited from earlier work.
The target in a further series is MAB_0330 (Mycobacteroides abscessus, UniProt B1MFM9). In words: β-lactam IC50 by drug treatment then Bocillin FL labeling, in-gel fluorescence. It is filed as binding.
Sequence of MAB_0330 (B1MFM9 entry or part of it): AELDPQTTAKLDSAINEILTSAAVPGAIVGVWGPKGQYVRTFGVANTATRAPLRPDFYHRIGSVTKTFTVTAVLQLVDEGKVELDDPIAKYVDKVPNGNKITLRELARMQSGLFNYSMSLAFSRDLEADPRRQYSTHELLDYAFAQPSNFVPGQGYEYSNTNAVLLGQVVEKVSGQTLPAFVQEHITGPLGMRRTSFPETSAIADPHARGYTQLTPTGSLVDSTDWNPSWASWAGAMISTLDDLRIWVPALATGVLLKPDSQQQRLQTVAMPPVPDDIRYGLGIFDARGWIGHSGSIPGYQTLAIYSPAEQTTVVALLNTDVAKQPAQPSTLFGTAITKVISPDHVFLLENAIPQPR
Another series deals with MAB_4800 (Mycobacteroides abscessus, UniProt B1MM83). The series is described as above. The format is binding.
Sequence of MAB_4800 (B1MM83 entry or part of it): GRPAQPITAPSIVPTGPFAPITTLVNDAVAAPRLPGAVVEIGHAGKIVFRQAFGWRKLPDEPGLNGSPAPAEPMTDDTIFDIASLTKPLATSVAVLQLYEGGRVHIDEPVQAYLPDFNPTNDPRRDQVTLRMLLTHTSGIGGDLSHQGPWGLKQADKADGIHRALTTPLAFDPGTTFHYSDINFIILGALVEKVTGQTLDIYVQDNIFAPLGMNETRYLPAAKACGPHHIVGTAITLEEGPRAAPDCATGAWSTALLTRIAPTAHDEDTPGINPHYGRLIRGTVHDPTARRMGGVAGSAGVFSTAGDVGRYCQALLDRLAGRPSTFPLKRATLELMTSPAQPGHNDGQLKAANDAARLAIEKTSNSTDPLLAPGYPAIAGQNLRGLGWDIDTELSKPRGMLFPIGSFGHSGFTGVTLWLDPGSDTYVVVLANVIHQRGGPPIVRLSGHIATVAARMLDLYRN
Series [4] concerns M. abscessus subsp. massiliense (n = 754 isolates). Details: method as in Hunkins et al. The note with it: ref Hunkins et al.; cited from earlier work.
The target of series [5] is Ldt4, PbpB, DacB2, and MAB_4800. Put plainly: β-lactam IC50, range over the four enzymes. The format is binding, Mycobacterium abscessus.
Series [6] has as its system β-lactam targets in M9510 whole-cell lysates. Put plainly: β-lactam competition of Mero-sCy5 labeling in whole-cell lysates. The format is binding, Mycobacterium abscessus subsp. massiliense. The settings on record: drug 1 mM, then Mero-sCy5 5 μM.
In series [7] the test system is Mab 19977 (ATCC 19977, subsp. abscessus). On the set-up: method as in not given. The note with it: supplemented Middlebrook 7H9 broth, reported values, ref not given; cited from earlier work.
Series [8] deals with M9510 (clinical strain, subsp. massiliense). In words: Reported MIC in supplemented Middlebrook 7H9 broth. The settings on record: from past characterization of M9510, ref not given. It is filed as cell-based, Mycobacterium abscessus subsp. massiliense.
Another series has as its target Ldt4 (Mycobacteroides abscessus, UniProt B1MKW1). Put plainly: β-lactam IC50 by drug treatment then Bocillin FL labeling, in-gel fluorescence. It is filed as binding, Mycobacterium abscessus.
The target in the next series is PbpB (Mycobacteroides abscessus, UniProt B1MP31). The series is described as above. It is filed as binding.
Sequence of PbpB (B1MP31 entry or part of it): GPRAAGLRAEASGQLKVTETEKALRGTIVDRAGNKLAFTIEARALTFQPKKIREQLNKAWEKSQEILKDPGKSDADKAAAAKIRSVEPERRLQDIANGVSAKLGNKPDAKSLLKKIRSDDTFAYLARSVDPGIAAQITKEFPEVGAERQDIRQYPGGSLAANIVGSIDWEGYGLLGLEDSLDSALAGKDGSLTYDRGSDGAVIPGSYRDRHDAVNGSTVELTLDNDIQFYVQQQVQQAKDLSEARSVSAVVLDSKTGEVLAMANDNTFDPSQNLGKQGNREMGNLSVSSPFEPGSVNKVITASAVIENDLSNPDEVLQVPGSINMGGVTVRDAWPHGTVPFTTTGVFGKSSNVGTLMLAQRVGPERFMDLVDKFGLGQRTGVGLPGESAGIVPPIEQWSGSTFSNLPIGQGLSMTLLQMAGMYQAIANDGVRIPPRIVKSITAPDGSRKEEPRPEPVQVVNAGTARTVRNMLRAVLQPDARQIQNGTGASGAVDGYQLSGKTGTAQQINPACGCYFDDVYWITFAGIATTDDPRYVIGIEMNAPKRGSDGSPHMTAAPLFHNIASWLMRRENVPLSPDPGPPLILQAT
For series [9], the system named is M9510 (clinical strain, subsp. massiliense). Details: method as in not given. The note with it: supplemented Middlebrook 7H9 broth, reported values, ref not given; cited from earlier work.

In brackets after ≈: the same amount, converted by molar mass.

Sequence of Ldt4 (B1MKW1 entry or part of it): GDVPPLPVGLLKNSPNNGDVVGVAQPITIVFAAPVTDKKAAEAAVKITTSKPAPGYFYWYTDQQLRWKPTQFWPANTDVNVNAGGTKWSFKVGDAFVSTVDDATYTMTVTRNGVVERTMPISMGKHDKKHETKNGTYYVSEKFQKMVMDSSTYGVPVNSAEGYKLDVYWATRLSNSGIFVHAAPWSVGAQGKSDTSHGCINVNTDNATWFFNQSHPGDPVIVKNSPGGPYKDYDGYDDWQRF
Sequence of DacB2 (B1MDJ1 entry or part of it): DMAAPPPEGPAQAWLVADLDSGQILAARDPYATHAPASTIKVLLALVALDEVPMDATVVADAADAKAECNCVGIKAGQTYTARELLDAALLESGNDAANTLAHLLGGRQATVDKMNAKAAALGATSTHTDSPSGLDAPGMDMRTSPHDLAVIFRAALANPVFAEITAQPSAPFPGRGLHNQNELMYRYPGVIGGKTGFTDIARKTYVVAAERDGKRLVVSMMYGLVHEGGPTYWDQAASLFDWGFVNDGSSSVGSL
Procedure for MAB_0330: Adjustment of image brightness and contrast and band intensity quantification was
performed with Fiji. Statistical comparison of mean band intensities between no
treatment and drug-treated enzymes was done using one-way ANOVA with Tukey
multiple comparison test in GraphPad Prism software.
We determined the inhibitory concentration 50 (IC50) of imipenem and cefoxitin for
PbpB, Ldt4, DacB2, and MAB_4800. We measured the IC50 by drug-treatment followed
by Bocillin FL labeling using the method described by Carlson23. Purified enzyme (0.5
μM) was treated with a range of inhibitor concentrations (.01 – 5000 µM) or buffer only
(NT) in 50 mM Tris-Cl (pH 8.0 at 4 °C), 150 mM NaCl for 30 min at 37 °C. Samples
were then incubated with 10 µM Bocillin FL for 30 min at 37 °C. Reactions were
stopped by addition of 1X TCEP SDS-PAGE loading dye and heating (5 min, 75 °C).
Technical duplicates were loaded and resolved on the same gel to standardize
background. Gels were destained of free probe overnight (30% methanol, 10% acetic
acid in water) and scanned using the Cy2 laser/emission filter on an Amersham
Typhoon imager. The experiment was repeated twice for each enzyme.
Mean band intensities were measured in ImageJ by drawing a box tightly around the
band. The inhibitor concentration versus mean band intensity was plotted and fit to a […]
GraphPad Prism software. Final values were calculated by averaging the IC50 across […]

Regarding `C[C@@H](O)[C@H]1C(=O)N2C(C(=O)O)=C(SCCN=CN)C[C@H]12` [IPM, imipenem], the “inhibition of Mero-sCy5 labeling of targets in lysate” value in series [1] and in series [6] was “abolished ABP labeling” throughout. In addition, the MIC90 in series [2] and in [4] was 16 µg/mL (≈ 53.4 µM) each time. Moreover, the IC50 (usually the concentration that inhibits the measured activity by half) was 2 ± 1 µM against DacB2; 170 µM against MAB_0330; 7 ± 3 µM at MAB_4800; 5.18 µM at Ldt4 (IC50 (best-fit value, example analysis Figure S8), Ldt4 with IPM, one experiment, 95% CI 1.796 to 11.10, R squared 0.8570); 4 ± 2 µM against Ldt4 (IC50 Ldt4, 0.5 μM enzyme, drug 30 min 37 °C, then 10 µM Bocillin FL); 4 ± 2 µM on PbpB. Besides, the “fCss,avg (median unbound average steady-state plasma concentration)” value in [3] was 12.2 µg/mL. In series [5], the “IC50 for the four enzymes, in mass units” value lay within 0.5 to 2 µg/mL. The minimum inhibitory concentration (MIC) (as a rule, the lowest concentration that inhibits growth of the organism) was 8 µg/mL (≈ 26.7 µM) in [7] and 24 µg/mL (≈ 80.2 µM) in [9]. Moreover, in [8], the “increased MIC in M9510 relative to 19977” value is 3 fold. Further, at Ldt4 (Ldt4 with IPM, one experiment), the “HillSlope (best-fit value, example analysis Figure S8)” value is listed as -1.416. The “fold more potent inhibition of PbpB than FOX” value at PbpB (IC50 comparison IPM vs FOX) is on record as 3 fold.
